Among the data in patent US8143243B2, “Compounds for the treatment of hepatitis C” (Bristol-Myers Squibb Company, priority 2007, dated 2012) are IC50 and EC50 values, retold here.

The term IC50 denotes the midpoint of a concentration-inhibition curve. For orientation: EC50 means the concentration that produces a half-maximal response.

One assay has as its target T1, HCV NS5B (Hepatitis C virus genotype 1b, UniProt Q9WMX2).
T1 construct: The protein was expressed with an 18 amino acid C-terminal truncation to enhance the solubility; made in house; host or cells: E. coli BL21 (DE3)
Kind of assay: HCV NS5B RdRp enzyme assay (standard / modified). To be noted: HCV RdRp genotype 1b enzyme; read-out: IC50. Format: biochemical. A digest of the protocol: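 SPA detection of 3H-UTP (0.29 μM) incorporation by C-terminally truncated (18 aa) genotype 1b NS5B from E. coli, on polyA/biotin-oligo-dT12 at 30° C, pH 7.5 Hepes, 2% DMSO. Modified format: 14 nM enzyme, 0.2 nM template, 20 nM primer prebound to beads, 4 h; standard: 28 nM, 6 nM, 180 nM free primer, 60 min. Seven-point IC50 fit.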

A further assay has as its system HCV replicon cells. Kind of assay: HCV replicon FRET / luciferase assay. Format: cell-based. To be noted: HCV replicon cells, FRET or luciferase readout, read-out: EC50. In a few lines:
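Percent activity is background-subtracted signal relative to untreated cell wells, with background taken from maximal protease-inhibitor wells. Cytotoxicity is Alamar blue fluorescence relative to controls. Replicon inhibition was read by NS3 FRET peptide cleavage (340/490 nm) or luciferase.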
(In antiviral work, replicon cells carry a viral genome segment that copies itself.)

Where two headings read alike, the source gives them in different places.

T1 sequence (Q9WMX2 2420-2992): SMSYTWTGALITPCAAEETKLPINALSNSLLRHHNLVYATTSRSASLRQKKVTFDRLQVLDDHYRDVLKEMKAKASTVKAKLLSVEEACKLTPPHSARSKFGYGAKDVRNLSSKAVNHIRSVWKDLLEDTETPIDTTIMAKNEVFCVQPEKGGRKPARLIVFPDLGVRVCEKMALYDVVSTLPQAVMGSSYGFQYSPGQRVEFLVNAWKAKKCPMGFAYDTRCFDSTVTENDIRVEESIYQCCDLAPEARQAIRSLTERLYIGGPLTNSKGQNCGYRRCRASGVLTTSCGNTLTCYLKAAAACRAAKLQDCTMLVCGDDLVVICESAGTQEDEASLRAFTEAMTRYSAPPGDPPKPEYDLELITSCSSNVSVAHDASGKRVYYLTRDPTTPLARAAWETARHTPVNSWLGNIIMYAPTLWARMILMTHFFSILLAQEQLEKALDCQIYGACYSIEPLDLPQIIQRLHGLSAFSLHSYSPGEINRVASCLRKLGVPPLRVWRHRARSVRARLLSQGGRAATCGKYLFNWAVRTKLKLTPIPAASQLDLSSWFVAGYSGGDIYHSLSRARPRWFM

Regarding `COc1ccc2c(c1)C=C(c1c(C(=O)N3CCOCC3)cnn1C)Cn1c-2c(C2CCCCC2)c2ccc(C(=O)NS(=O)(=O)N(C)C)cc21`, the half-inhibitory concentration (IC50) at HCV NS5B was in the range of 1 to 500 nM. Also, the 50% effective concentration (EC50) with HCV replicon cells (Hepatitis C virus) was in the range of 1 to 500 nM.

`COc1ccc2c(c1)C=C(c1c(C(=O)N3CCOCC3)cnn1C)Cn1c-2c(C2CCCCC2)c2ccc(C(=O)O)cc21`: at HCV NS5B, the half-inhibitory concentration (IC50) lay within 1 to 500 nM. In addition, in the assay on HCV replicon cells (Hepatitis C virus), the EC50 was 1 to 500 nM.

On to `CCN(CC)C(=O)c1sccc1C1=Cc2cc(OC)ccc2-c2c(C3CCCCC3)c3ccc(C(=O)NS(=O)(=O)N(C)C)cc3n2C1`, for which, at HCV NS5B, the IC50 fell in the range of 1 to 500 nM. Besides, in the assay on HCV replicon cells (Hepatitis C virus), the EC50 was in the range of 1 to 500 nM.

On to `CCn1ncc(C(=O)N2CCOCC2)c1C1=Cc2cc(OC)ccc2-c2c(C3CCCCC3)c3ccc(C(=O)NS(=O)(=O)C(C)C)cc3n2C1`, for which, on HCV NS5B, the 50% inhibitory concentration (IC50) was in the range of 1 to 500 nM. The concentration for a half-maximal effect (EC50) in the assay with HCV replicon cells (Hepatitis C virus) lay in the range of 1 to 500 nM.

Consider `CCn1ncc(C(=O)N2CCOCC2)c1C1=Cc2cc(OC)ccc2-c2c(C3CCCCC3)c3ccc(C(=O)NS(=O)(=O)N(C)C)cc3n2C1`, for which the IC50 on HCV NS5B fell in the range of 1 to 500 nM. For the same compound, the 50% effective concentration (EC50) in the assay on HCV replicon cells (Hepatitis C virus) was 1 to 500 nM.

For `CCn1ncc(C(=O)N2CCOCC2)c1C1=Cc2cc(OC)ccc2-c2c(C3CCCCC3)c3ccc(C(=O)N4CCOCC4)cc3n2C1`, the IC50 at HCV NS5B is more than 500 nM. Also, in the assay with HCV replicon cells (Hepatitis C virus), the EC50 was in the range of 1 to 500 nM.

Take `COc1ccc2c(c1)C=C(c1ocnc1C(=O)N1CCOCC1)Cn1c-2c(C2CCCCC2)c2ccc(C(=O)NS(=O)(=O)N3CCOCC3)cc21`: the half-inhibitory concentration (IC50) on HCV NS5B was 1 to 500 nM. The concentration giving a half-maximal response (EC50) in the assay with HCV replicon cells (Hepatitis C virus) was in the range of 1 to 500 nM.

For `COc1ccc2c(c1)C=C(c1ocnc1C(=O)N1CCOCC1)Cn1c-2c(C2CCCCC2)c2ccc(C(=O)NS(=O)(=O)C3CC3)cc21`, at HCV NS5B, the half-maximal inhibitory concentration (IC50) lay in the range of 1 to 500 nM. The 50% effective concentration (EC50) in the assay with HCV replicon cells (Hepatitis C virus) is 1 to 500 nM.

Consider `CCOC(=O)c1cnn(C)c1C1=Cc2cc(OC)ccc2-c2c(C3CCCCC3)c3ccc(C(=O)OC(C)(C)C)cc3n2C1`, for which the concentration for half-maximal inhibition (IC50) at HCV NS5B was more than 40 nM. Besides, the EC50 with HCV replicon cells (Hepatitis C virus) is 1 to 500 nM.

Turning to `CCOC(=O)c1cnn(C)c1C1=Cc2cc(OC)ccc2-c2c(C3CCCCC3)c3ccc(C(=O)O)cc3n2C1`, the IC50 on HCV NS5B was in the range of 1 to 500 nM. The half-maximal effective concentration (EC50) in the assay with HCV replicon cells (Hepatitis C virus) is 1 to 500 nM.

Consider `CCOC(=O)c1cnn(C)c1C1=Cc2cc(OC)ccc2-c2c(C3CCCCC3)c3ccc(C(=O)NS(=O)(=O)C(C)C)cc3n2C1`, for which the IC50 on HCV NS5B was 1 to 500 nM. In the assay on HCV replicon cells (Hepatitis C virus), the concentration giving a half-maximal response (EC50) fell in the range of 1 to 500 nM.

For the compound `COc1ccc2c(c1)C=C(c1c(C(=O)N(C)C3CCN(C)C3)cnn1C)Cn1c-2c(C2CCCCC2)c2ccc(C(=O)NS(=O)(=O)N3CCOCC3)cc21` (stereo not drawn), the IC50 at HCV NS5B was in the range of 1 to 500 nM. For the same compound, the EC50 with HCV replicon cells (Hepatitis C virus) lay in the range of 1 to 500 nM.

For the compound `COc1ccc2c(c1)C=C(c1c(C(=O)N3CCCN(C)CC3)cnn1C)Cn1c-2c(C2CCCCC2)c2ccc(C(=O)NS(=O)(=O)N3CCOCC3)cc21`, on HCV NS5B, the IC50 is less than 20 nM. Further, the concentration for a half-maximal effect (EC50) in the assay with HCV replicon cells (Hepatitis C virus) lay within 1 to 500 nM.

For the compound `COc1ccc2c(c1)C=C(c1c(C(=O)N3CCC(N(C)C)C3)cnn1C)Cn1c-2c(C2CCCCC2)c2ccc(C(=O)NS(=O)(=O)N3CCOCC3)cc21` (stereo not drawn), the IC50 on HCV NS5B lay within 1 to 500 nM. For the same compound, in the assay with HCV replicon cells (Hepatitis C virus), the concentration for a half-maximal effect (EC50) was in the range of 1 to 500 nM.

Consider `COc1ccc2c(c1)C=C(c1c(C(=O)N3CCOCC3)cnn1C)Cn1c-2c(C2CCCCC2)c2ccc(C(=O)NS(=O)(=O)N3CCOCC3)cc21`, for which, on HCV NS5B, the half-inhibitory concentration (IC50) is less than 20 nM. The half-maximal effective concentration (EC50) in the assay with HCV replicon cells (Hepatitis C virus) was in the range of 1 to 500 nM.

For the compound `COc1ccc2c(c1)C=C(c1c(C(=O)N3CCOC(CN(C)C)C3)cnn1C)Cn1c-2c(C2CCCCC2)c2ccc(C(=O)NS(=O)(=O)N3CCOCC3)cc21` (stereo not drawn), the half-maximal inhibitory concentration (IC50) on HCV NS5B fell in the range of 1 to 500 nM. Besides, in the assay on HCV replicon cells (Hepatitis C virus), the half-maximal effective concentration (EC50) fell in the range of 1 to 500 nM.

As for `COc1ccc2c(c1)C=C(c1c(C(=O)N3C[C@@H](C)O[C@@H](C)C3)cnn1C)Cn1c-2c(C2CCCCC2)c2ccc(C(=O)NS(=O)(=O)N3CCOCC3)cc21`, the IC50 on HCV NS5B is 1 to 500 nM. The 50% effective concentration (EC50) in the assay with HCV replicon cells (Hepatitis C virus) lay in the range of 1 to 500 nM.

Take `COc1ccc2c(c1)C=C(c1c(C(=O)N3CCN4CCCC4C3)cnn1C)Cn1c-2c(C2CCCCC2)c2ccc(C(=O)NS(=O)(=O)N3CCOCC3)cc21` (stereo not drawn): on HCV NS5B, the half-maximal inhibitory concentration (IC50) was 1 to 500 nM. Also, the EC50 in the assay with HCV replicon cells (Hepatitis C virus) lay within 1 to 500 nM.

On to `COc1ccc2c(c1)C=C(c1c(C(=O)N3CCN4CCC3CC4)cnn1C)Cn1c-2c(C2CCCCC2)c2ccc(C(=O)NS(=O)(=O)N3CCOCC3)cc21`, for which the 50% inhibitory concentration (IC50) on HCV NS5B lay within 1 to 500 nM. Besides, the EC50 in the assay with HCV replicon cells (Hepatitis C virus) was 1 to 500 nM.

As to `CCN1C[C@@H]2C[C@H]1CN2C(=O)c1cnn(C)c1C1=Cc2cc(OC)ccc2-c2c(C3CCCCC3)c3ccc(C(=O)NS(=O)(=O)N4CCOCC4)cc3n2C1`, on HCV NS5B, the half-maximal inhibitory concentration (IC50) was in the range of 1 to 500 nM. Moreover, the EC50 with HCV replicon cells (Hepatitis C virus) fell in the range of 1 to 500 nM.

Regarding `COc1ccc2c(c1)C=C(c1c(C(=O)N3CCN(C)CC3)cnn1C)Cn1c-2c(C2CCCCC2)c2ccc(C(=O)NS(=O)(=O)N3CCOCC3)cc21`, the IC50 at HCV NS5B is 1 to 500 nM. For the same compound, the EC50 with HCV replicon cells (Hepatitis C virus) was in the range of 1 to 500 nM.

In the case of `COc1ccc2c(c1)C=C(c1c(C(=O)N3CCN(C(C)C)CC3)cnn1C)Cn1c-2c(C2CCCCC2)c2ccc(C(=O)NS(=O)(=O)N3CCOCC3)cc21`, on HCV NS5B, the IC50 was in the range of 1 to 500 nM. Further, the EC50 in the assay with HCV replicon cells (Hepatitis C virus) was 1 to 500 nM.

`COc1ccc2c(c1)C=C(c1c(C(=O)N3CCCC(N(C)C)C3)cnn1C)Cn1c-2c(C2CCCCC2)c2ccc(C(=O)NS(=O)(=O)N3CCOCC3)cc21` (stereo not drawn): the IC50 on HCV NS5B lay in the range of 1 to 500 nM. Moreover, in the assay on HCV replicon cells (Hepatitis C virus), the EC50 was 1 to 500 nM.

Regarding `COc1ccc2c(c1)C=C(c1c(C(=O)N3CCCC4(CCNC4=O)C3)cnn1C)Cn1c-2c(C2CCCCC2)c2ccc(C(=O)NS(=O)(=O)N3CCOCC3)cc21` (stereo not drawn), the IC50 on HCV NS5B lay within 1 to 500 nM. For the same compound, the EC50 with HCV replicon cells (Hepatitis C virus) was in the range of 1 to 500 nM.

Consider `COc1ccc2c(c1)C=C(c1c(C(=O)N3CCCC3CN3CCCCC3)cnn1C)Cn1c-2c(C2CCCCC2)c2ccc(C(=O)NS(=O)(=O)N3CCOCC3)cc21` (stereo not drawn), for which, on HCV NS5B, the 50% inhibitory concentration (IC50) lay in the range of 1 to 500 nM. In addition, the half-maximal effective concentration (EC50) in the assay on HCV replicon cells (Hepatitis C virus) lay within 1 to 500 nM.

On to `CCOC(=O)N1CCN(C(=O)c2cnn(C)c2C2=Cc3cc(OC)ccc3-c3c(C4CCCCC4)c4ccc(C(=O)NS(=O)(=O)N5CCOCC5)cc4n3C2)CC1`, for which the IC50 on HCV NS5B is 1 to 500 nM. Further, in the assay with HCV replicon cells (Hepatitis C virus), the EC50 lay within 1 to 500 nM.

For `CCn1nc(C)c(C(=O)N2C[C@@H]3C[C@H]2CO3)c1C1=Cc2cc(OC)ccc2-c2c(C3CCCCC3)c3ccc(C(=O)NS(=O)(=O)C(C)C)cc3n2C1`, the half-inhibitory concentration (IC50) at HCV NS5B was 1 to 500 nM. In addition, the EC50 with HCV replicon cells (Hepatitis C virus) is 1 to 500 nM.

In the case of `CCN1C[C@@H]2C[C@H]1CN2C(=O)c1c(C)nn(CC)c1C1=Cc2cc(OC)ccc2-c2c(C3CCCCC3)c3ccc(C(=O)NS(=O)(=O)C(C)C)cc3n2C1`, the IC50 on HCV NS5B lay within 1 to 500 nM. Further, the half-maximal effective concentration (EC50) in the assay on HCV replicon cells (Hepatitis C virus) was 1 to 500 nM.

With `CCn1nc(C)c(C(=O)N2C[C@@H](C)O[C@@H](C)C2)c1C1=Cc2cc(OC)ccc2-c2c(C3CCCCC3)c3ccc(C(=O)NS(=O)(=O)C(C)C)cc3n2C1` [drawing 580], the 50% inhibitory concentration (IC50) on HCV NS5B was 1 to 500 nM. Also, the EC50 with HCV replicon cells (Hepatitis C virus) was in the range of 1 to 500 nM.

As to `CCn1nc(C)c(C(=O)N2C[C@@H](C)O[C@@H](C)C2)c1C1=Cc2cc(OC)ccc2-c2c(C3CCCCC3)c3ccc(C(=O)NS(=O)(=O)C(C)C)cc3n2C1` [drawing 627], the IC50 at HCV NS5B was 1 to 500 nM. In addition, the 50% effective concentration (EC50) in the assay on HCV replicon cells was 1 to 500 nM.
